Laboratory results reported in patent US20230303572A1, “18-MC SALT FORMS” (Mind Medicine, Inc., priority 2022, published 2023).
Entries after “also recorded” stand apart in the source; their conditions may differ. Where a name gives a salt, the structure may show the parent alone.

Experiments:
Assay type in all cases: physicochemical
[1] = Relative thermodynamic stability of HCl salt forms (desolvation and form conversion data); conditions: for Form after desolvation: solvates of HCl salt
Experimental: Starting from HCl salt materials with different forms, a total of 100 polymorph screening experiments was performed using different crystallization methods including salt formation by liquid vapor diffusion/slurry at elevated temperature, evaporation at RT/high temperatures, slurry and reverse anti-solvent addition at different temperatures, slow/crash cooling, polymer induced crystallization and grinding. All the resulting solids were isolated for XRPD test, and new forms were further characterized by TGA, DSC, ^1H NMR and HPLC/ IC.
An additional polymorph screening was performed for 18-MC HCl salt.

[2] = Heating experiments and VT-XRPD (N2 drying, heating, cooling back): form change; conditions: for form change after heating (XRPD/VT-XRPD): heating to 100° C.; for Form after heating: solid form by XRPD after heating, cells marked *, # have footnotes that are not shown
Description: (§1) For XRPD analysis, a PANalytical Empyrean and X′ Pert3 X-ray powder diffract meter was used.

[3] = Physical form stability on storage at RT, air drying or exposure to ambient conditions (XRPD); conditions: for Form after treatment: metastable forms; for form change after exposure to ambient conditions (XRPD): exposure to ambient conditions for ~30 min; for physical stability at ambient conditions: time not stated
Description: as §1

[4] = after air drying or RT storage, duration not stated
[5] = after storage or heating experiments

Structure (SMILES): COCC[C@H]1CC2CN3CCc4c([nH]c5ccccc45)[C@](C(=O)OC)(C2)[C@H]13 [HCl salt Type P, 18-methoxycoronaridine]
- Form after desolvation [1]: HCl salt Type A
- form change after N2 drying (VT-XRPD) ([2]; N2-drying for 20 min at 30° C.): no form change
- form conversion, summary statement ([2]; after desolvation): converted to HCl salt Type A
- form change after heating (XRPD) ([2]; heating to 80° C. and cooling back to RT): no obvious form change
- form change after heating (XRPD/VT-XRPD) [2]: form change to HCl salt Type A
- form change after heating (XRPD) ([2]; heating to 150° C.): converted to HCl salt Type A
- form change after heating (VT-XRPD) ([2]; heating to 210° C. under N2 protection): amorphous sample was observed

Structure (SMILES): COCC[C@H]1CC2CN3CCc4c([nH]c5ccccc45)[C@](C(=O)OC)(C2)[C@H]13 [HCl salt Type E, 18-methoxycoronaridine]
- Form after treatment ([3]; Air drying): HCl salt Type A**
- Form after heating [2]: HCl salt Type A**

Structure (SMILES): COCC[C@H]1CC2CN3CCc4c([nH]c5ccccc45)[C@](C(=O)OC)(C2)[C@H]13 [HCl salt Type G, 18-methoxycoronaridine]
- Form after treatment ([3]; RT storage): HCl salt Type A^#
- Form after heating [2]: HCl salt Type A**

Structure (SMILES): COCC[C@H]1CC2CN3CCc4c([nH]c5ccccc45)[C@](C(=O)OC)(C2)[C@H]13 [HCl salt Type L, 18-methoxycoronaridine]
- Form after treatment ([3]; RT storage): HCl salt Type A^#
- form conversion, summary statement [3, 4]: converted to HCl salt Type A
- Form after heating [2]: HCl salt Type A

Structure (SMILES): COCC[C@H]1CC2CN3CCc4c([nH]c5ccccc45)[C@](C(=O)OC)(C2)[C@H]13 [HBr salt Type C, 18-methoxycoronaridine]
- form conversion, summary statement [3, 5]: could convert to HBr salt Type A
- form change after heating (XRPD/VT-XRPD) [2]: peak of HBr salt Type A was observed
- form change after heating (XRPD) ([2]; heating to 150° C.): most diffraction peaks were consistent with HBr salt Type A

Structure (SMILES): COCC[C@H]1CC2CN3CCc4c([nH]c5ccccc45)[C@](C(=O)OC)(C2)[C@H]13 [tosylate Type A, 18-methoxycoronaridine]
- form change after storage (XRPD) ([3]; storage at RT for ~7 days): peak of tosylate Type B was observed
- form change after storage (XRPD) ([3]; storage for 3 weeks): totally converted to tosylate Type B
- form change after N2 drying (VT-XRPD) ([2]; N2-drying for 30 min at 30° C.): no form change
- form change after heating (XRPD/VT-XRPD) [2]: a form change was observed, which was assigned as tosylate Type I

Structure (SMILES): COCC[C@H]1CC2CN3CCc4c([nH]c5ccccc45)[C@](C(=O)OC)(C2)[C@H]13 [HCl salt Type N, 18-methoxycoronaridine]
- Form after treatment ([3]; RT storage): HCl salt Type A^#
- form conversion, summary statement [3, 4]: converted to HCl salt Type A

Structure (SMILES): COCC[C@H]1CC2CN3CCc4c([nH]c5ccccc45)[C@](C(=O)OC)(C2)[C@H]13 [HCl salt Type I, 18-methoxycoronaridine]
- Form after desolvation [1]: HCl salt Type A

Structure (SMILES): COCC[C@H]1CC2CN3CCc4c([nH]c5ccccc45)[C@](C(=O)OC)(C2)[C@H]13 [HCl salt Type J, 18-methoxycoronaridine]
- Form after treatment ([3]; RT storage): HCl salt Type F^#
- Form after heating [2]: HCl salt Type F*

Structure (SMILES): COCC[C@H]1CC2CN3CCc4c([nH]c5ccccc45)[C@](C(=O)OC)(C2)[C@H]13 [HBr salt Type D, 18-methoxycoronaridine]
- form conversion, summary statement [3, 5]: could convert to HBr salt Type A
- form change after heating (XRPD/VT-XRPD) [2]: extra peak of HBr salt Type A was observed
- form change after heating (XRPD) ([2]; heating to 150° C.): most diffraction peaks of the sample were consistent with HBr salt Type A

Structure (SMILES): COCC[C@H]1CC2CN3CCc4c([nH]c5ccccc45)[C@](C(=O)OC)(C2)[C@H]13 [HCl salt Type A, 18-methoxycoronaridine]
- thermodynamic stability among HCl salt forms ([1]; at RT): thermodynamically more stable than other anhydrates; also recorded: most thermodynamically stable form
- thermodynamic stability among hydrochloride salt forms ([1]; temperature not stated): most thermodynamically stable form

Structure (SMILES): COCC[C@H]1CC2CN3CCc4c([nH]c5ccccc45)[C@](C(=O)OC)(C2)[C@H]13 [tosylate Type I, 18-methoxycoronaridine]
- form change after open dish (XRPD) ([3]; open dish for ~3 hrs): converted back to tosylate Type A with an extra peak of tosylate Type B

Structure (SMILES): COCC[C@H]1CC2CN3CCc4c([nH]c5ccccc45)[C@](C(=O)OC)(C2)[C@H]13 [HCl salt Type A+O, 18-methoxycoronaridine]
- form change after storage (XRPD) ([3]; storage at RT for ~19 days): converted to HCl salt Type A completely

Structure (SMILES): COCC[C@H]1CC2CN3CCc4c([nH]c5ccccc45)[C@](C(=O)OC)(C2)[C@H]13 [HCl salt Type K, 18-methoxycoronaridine]
- Form change after treatment ([3]; Exposure to ambient conditions (~50%RH), XRPD form): HCl salt Type F^#

Structure (SMILES): COCC[C@H]1CC2CN3CCc4c([nH]c5ccccc45)[C@](C(=O)OC)(C2)[C@H]13 [besylate Type C, 18-methoxycoronaridine]
- form change after exposure to ambient conditions (XRPD) [3]: converted back to besylate Type A

Structure (SMILES): COCC[C@H]1CC2CN3CCc4c([nH]c5ccccc45)[C@](C(=O)OC)(C2)[C@H]13 [sulfate Type B, 18-methoxycoronaridine]
- form conversion, summary statement [3, 4]: converted to sulfate Type E
- form change after storage (XRPD) ([3]; storage at RT in a sealed vial for ~12 days): form change to sulfate Type E

Structure (SMILES): COCC[C@H]1CC2CN3CCc4c([nH]c5ccccc45)[C@](C(=O)OC)(C2)[C@H]13 [HCl salt Type A+N, 18-methoxycoronaridine]
- form change after storage (XRPD) ([3]; storage at RT for ~21 days): converted to HCl salt Type A completely

Structure (SMILES): COCC[C@H]1CC2CN3CCc4c([nH]c5ccccc45)[C@](C(=O)OC)(C2)[C@H]13 [tosylate Type C, 18-methoxycoronaridine]
- form change after storage (XRPD) ([3]; storage at RT for about 2.5 month): form change to tosylate Type B
- form change after N2 drying (VT-XRPD) ([2]; N2-drying for 30 min at 30° C.): form change was observed for tosylate Type C. The new form was assigned as tosylate Type D

Structure (SMILES): COCC[C@H]1CC2CN3CCc4c([nH]c5ccccc45)[C@](C(=O)OC)(C2)[C@H]13 [HCl salt Type O, 18-methoxycoronaridine]
- Form after treatment ([3]; RT storage): HCl salt Type A^#
- form conversion, summary statement [3, 4]: converted to HCl salt Type A

Structure (SMILES): COCC[C@H]1CC2CN3CCc4c([nH]c5ccccc45)[C@](C(=O)OC)(C2)[C@H]13 [HCl salt Type V, 18-methoxycoronaridine]
- Form after treatment ([3]; Air drying): HCl salt Type A**
- form conversion, summary statement [3, 4]: converted to HCl salt Type A
- form change after air drying (XRPD) ([3]; air drying for ~3 hours): converted to HCl salt Type A completely

Structure (SMILES): COCC[C@H]1CC2CN3CCc4c([nH]c5ccccc45)[C@](C(=O)OC)(C2)[C@H]13 [tosylate Type H, 18-methoxycoronaridine]
- form change after air drying (XRPD) ([3]; air drying for ~3 hours): form change to tosylate Type A
- Speculated form (physical stability) ([3]; form characterization summary of tosylate): Metastable

Structure (SMILES): COCC[C@H]1CC2CN3CCc4c([nH]c5ccccc45)[C@](C(=O)OC)(C2)[C@H]13 [mesylate Type C, 18-methoxycoronaridine]
- physical stability at ambient conditions [3]: not found to be physically stable at ambient conditions and easily converted to gels/oils
- Speculated form (physical stability) ([3]; the solid turn to gel-like after air drying at RT in a few minutes): Metastable*

Structure (SMILES): COCC[C@H]1CC2CN3CCc4c([nH]c5ccccc45)[C@](C(=O)OC)(C2)[C@H]13 [HBr salt Type B, 18-methoxycoronaridine]
- form conversion, summary statement [3, 5]: could convert to HBr salt Type A
- Form change on storage ([3]; storage at RT for ~20 days): *: Partially converted to HBr salt Type A after storage at RT for ~20 days.
- form change after storage (XRPD) ([3]; storage at RT for ~20 days): partially converted to HBr salt anhydrate Type A

Structure (SMILES): COCC[C@H]1CC2CN3CCc4c([nH]c5ccccc45)[C@](C(=O)OC)(C2)[C@H]13 [sulfate Type F, 18-methoxycoronaridine]
- physical stability at ambient conditions [3]: not physically stable
- form change after exposure to ambient conditions (XRPD) [3]: converted back to sulfate Type D
- form change after heating (XRPD/VT-XRPD) [2]: remained sulfate Type F

Structure (SMILES): COCC[C@H]1CC2CN3CCc4c([nH]c5ccccc45)[C@](C(=O)OC)(C2)[C@H]13 [tosylate Type D, 18-methoxycoronaridine]
- form change after exposure to ambient conditions (XRPD) [3]: converted to tosylate Type B
- form change after heating (XRPD/VT-XRPD) [2]: no form change
- form change after heating (VT-XRPD) ([2]; heating to 140° C. under N2 protection): an amorphous pattern was observed

Structure (SMILES): COCC[C@H]1CC2CN3CCc4c([nH]c5ccccc45)[C@](C(=O)OC)(C2)[C@H]13 [HCl salt Type D, 18-methoxycoronaridine]
- Form after treatment ([3]; Air drying): HCl salt Type A**
- Form after heating [2]: HCl salt Type A*

Structure (SMILES): COCC[C@H]1CC2CN3CCc4c([nH]c5ccccc45)[C@](C(=O)OC)(C2)[C@H]13 [sulfate Type C, 18-methoxycoronaridine]
- form conversion, summary statement [3, 4]: converted to sulfate Type A
- form change after air drying (XRPD) ([3]; air drying at RT for ~30 min): converted to sulfate Type A
